Results as given in ChEMBL document CHEMBL5465560, “Selectivity Literature for EUbOPEN Chemogenomic Library” (2024).

Columns and labels:
[1] = biological target: T1, Interleukin-1 receptor-associated kinase 3 (Homo sapiens) (UniProt Q9Y616); settings: at 10 µM
T1 sequence (whole entry): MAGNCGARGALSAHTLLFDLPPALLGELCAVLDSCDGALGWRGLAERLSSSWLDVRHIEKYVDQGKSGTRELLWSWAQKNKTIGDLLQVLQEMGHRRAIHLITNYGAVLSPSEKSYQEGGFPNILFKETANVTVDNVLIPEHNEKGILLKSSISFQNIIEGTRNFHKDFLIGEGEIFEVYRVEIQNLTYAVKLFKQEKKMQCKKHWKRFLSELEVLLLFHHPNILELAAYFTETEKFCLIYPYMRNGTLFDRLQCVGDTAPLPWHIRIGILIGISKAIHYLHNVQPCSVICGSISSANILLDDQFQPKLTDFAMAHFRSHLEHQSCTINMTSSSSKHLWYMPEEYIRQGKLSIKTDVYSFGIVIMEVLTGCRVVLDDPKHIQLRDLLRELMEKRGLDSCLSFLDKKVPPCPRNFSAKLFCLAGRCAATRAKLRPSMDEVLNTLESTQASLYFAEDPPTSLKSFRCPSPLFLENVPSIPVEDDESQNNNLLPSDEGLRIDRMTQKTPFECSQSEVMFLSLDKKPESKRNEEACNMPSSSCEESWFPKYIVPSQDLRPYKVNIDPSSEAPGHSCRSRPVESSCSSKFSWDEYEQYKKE

[2] = biological target: Ribosomal protein S6 kinase alpha-1 (Homo sapiens, UniProt Q15418); settings: at 10 µM
[3] = biological target: Myosin-IIIa (Homo sapiens) (UniProt Q8NEV4); assay: Selectivity interaction (KinomeScan (DiscoverX)) EUB0001079a MYO3A; settings: at 1 µM
[4] = biological target: SWI/SNF-related matrix-associated actin-dependent regulator of chromatin subfamily A member 4 (Homo sapiens) (UniProt P51532); assay: Selectivity interaction (Human bromodomain panel (DSF assay)) EUB0000233b SMARCA4
[5] = biological target: T2, Serine/threonine-protein kinase MAK (Homo sapiens) (UniProt P20794); settings: at 10 µM
T2 sequence (whole entry): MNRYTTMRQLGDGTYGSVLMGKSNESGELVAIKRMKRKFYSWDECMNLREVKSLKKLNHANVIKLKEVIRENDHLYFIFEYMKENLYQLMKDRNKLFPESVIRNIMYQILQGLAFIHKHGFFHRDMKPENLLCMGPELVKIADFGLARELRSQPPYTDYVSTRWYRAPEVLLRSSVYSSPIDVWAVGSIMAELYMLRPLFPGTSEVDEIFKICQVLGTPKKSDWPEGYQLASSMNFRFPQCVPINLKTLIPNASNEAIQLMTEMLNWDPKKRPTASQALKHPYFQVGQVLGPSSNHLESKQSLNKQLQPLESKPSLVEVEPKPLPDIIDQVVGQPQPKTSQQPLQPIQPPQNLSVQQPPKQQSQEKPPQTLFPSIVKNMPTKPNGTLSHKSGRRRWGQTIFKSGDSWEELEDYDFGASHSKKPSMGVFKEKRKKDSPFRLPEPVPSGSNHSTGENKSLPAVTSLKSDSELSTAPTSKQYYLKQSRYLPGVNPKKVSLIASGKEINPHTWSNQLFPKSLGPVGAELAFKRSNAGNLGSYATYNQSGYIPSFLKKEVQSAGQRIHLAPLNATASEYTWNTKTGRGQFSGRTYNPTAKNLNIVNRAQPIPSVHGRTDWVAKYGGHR

[6] = biological target: Ribosomal protein S6 kinase alpha-3 (Homo sapiens, UniProt P51812); assay: Selectivity interaction (ActivX KiNativ screen (kinase selectivity in THP-1 cell lysates)) EUB0000639a RPS6KA3; assay type: subcellular; settings: lysate, at 0.2 µM
[7] = biological target: Eukaryotic translation initiation factor 2-alpha kinase 1 (Homo sapiens) (UniProt Q9BQI3); assay: Selectivity interaction (KinomeScan (DiscoverX)) EUB0000607a EIF2AK1; settings: at 10 µM
Misshapen-like kinase 1 = Misshapen-like kinase 1 (Homo sapiens, UniProt Q8N4C8); assay: Selectivity interaction (KinomeScan (DiscoverX)) EUB0000045b MINK1
[8] = biological target: T3, Dual specificity protein kinase TTK (Homo sapiens) (UniProt P33981); assay: Selectivity interaction (KinomeScan (DiscoverX)) EUB0000045b TTK
T3 sequence (whole entry): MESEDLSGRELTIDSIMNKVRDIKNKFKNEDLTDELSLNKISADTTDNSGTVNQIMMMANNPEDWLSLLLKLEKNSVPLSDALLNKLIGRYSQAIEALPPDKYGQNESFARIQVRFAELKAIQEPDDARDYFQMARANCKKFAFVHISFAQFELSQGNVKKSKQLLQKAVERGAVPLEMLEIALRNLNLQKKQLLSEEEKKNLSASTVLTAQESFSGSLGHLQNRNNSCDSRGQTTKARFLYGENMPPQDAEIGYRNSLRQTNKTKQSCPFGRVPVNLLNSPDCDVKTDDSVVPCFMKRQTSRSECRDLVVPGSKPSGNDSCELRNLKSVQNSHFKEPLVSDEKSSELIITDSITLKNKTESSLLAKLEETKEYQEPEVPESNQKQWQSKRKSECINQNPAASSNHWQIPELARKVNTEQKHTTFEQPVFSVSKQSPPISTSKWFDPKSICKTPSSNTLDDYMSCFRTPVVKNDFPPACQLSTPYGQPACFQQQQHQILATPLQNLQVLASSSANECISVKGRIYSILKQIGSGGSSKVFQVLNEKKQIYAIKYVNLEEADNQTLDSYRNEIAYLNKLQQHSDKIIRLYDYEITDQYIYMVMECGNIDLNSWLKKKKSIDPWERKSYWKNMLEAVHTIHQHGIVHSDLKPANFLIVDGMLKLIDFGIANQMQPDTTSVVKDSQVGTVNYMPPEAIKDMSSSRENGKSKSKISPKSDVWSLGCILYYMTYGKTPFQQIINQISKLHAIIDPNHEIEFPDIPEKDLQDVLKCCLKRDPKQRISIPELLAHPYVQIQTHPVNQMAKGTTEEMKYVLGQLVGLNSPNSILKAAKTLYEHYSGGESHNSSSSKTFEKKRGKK

[9] = biological target: Tyrosine-protein kinase Yes (Homo sapiens) (UniProt P07947); assay: Selectivity interaction (KinomeScan (DiscoverX)) EUB0000618a YES1; settings: at 10 µM
Sequence of Tyrosine-protein kinase Yes (Homo sapiens) (P07947 2-543 limits assumed): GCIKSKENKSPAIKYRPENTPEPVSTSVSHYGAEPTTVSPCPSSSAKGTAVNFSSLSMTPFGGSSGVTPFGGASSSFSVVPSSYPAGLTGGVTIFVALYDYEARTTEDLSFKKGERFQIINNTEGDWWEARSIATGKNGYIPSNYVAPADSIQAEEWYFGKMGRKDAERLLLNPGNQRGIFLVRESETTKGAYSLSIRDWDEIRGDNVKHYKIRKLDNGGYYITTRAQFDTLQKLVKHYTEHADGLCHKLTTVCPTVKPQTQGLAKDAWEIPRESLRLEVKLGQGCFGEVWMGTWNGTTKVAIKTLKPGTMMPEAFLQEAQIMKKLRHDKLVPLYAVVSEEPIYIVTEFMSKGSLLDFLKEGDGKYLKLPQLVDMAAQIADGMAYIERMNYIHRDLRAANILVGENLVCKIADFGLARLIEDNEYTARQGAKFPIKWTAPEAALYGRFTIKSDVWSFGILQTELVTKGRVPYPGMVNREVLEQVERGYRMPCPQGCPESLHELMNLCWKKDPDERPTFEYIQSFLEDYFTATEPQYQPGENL

Sequence of Misshapen-like kinase 1 (Q8N4C8 whole entry, looked up): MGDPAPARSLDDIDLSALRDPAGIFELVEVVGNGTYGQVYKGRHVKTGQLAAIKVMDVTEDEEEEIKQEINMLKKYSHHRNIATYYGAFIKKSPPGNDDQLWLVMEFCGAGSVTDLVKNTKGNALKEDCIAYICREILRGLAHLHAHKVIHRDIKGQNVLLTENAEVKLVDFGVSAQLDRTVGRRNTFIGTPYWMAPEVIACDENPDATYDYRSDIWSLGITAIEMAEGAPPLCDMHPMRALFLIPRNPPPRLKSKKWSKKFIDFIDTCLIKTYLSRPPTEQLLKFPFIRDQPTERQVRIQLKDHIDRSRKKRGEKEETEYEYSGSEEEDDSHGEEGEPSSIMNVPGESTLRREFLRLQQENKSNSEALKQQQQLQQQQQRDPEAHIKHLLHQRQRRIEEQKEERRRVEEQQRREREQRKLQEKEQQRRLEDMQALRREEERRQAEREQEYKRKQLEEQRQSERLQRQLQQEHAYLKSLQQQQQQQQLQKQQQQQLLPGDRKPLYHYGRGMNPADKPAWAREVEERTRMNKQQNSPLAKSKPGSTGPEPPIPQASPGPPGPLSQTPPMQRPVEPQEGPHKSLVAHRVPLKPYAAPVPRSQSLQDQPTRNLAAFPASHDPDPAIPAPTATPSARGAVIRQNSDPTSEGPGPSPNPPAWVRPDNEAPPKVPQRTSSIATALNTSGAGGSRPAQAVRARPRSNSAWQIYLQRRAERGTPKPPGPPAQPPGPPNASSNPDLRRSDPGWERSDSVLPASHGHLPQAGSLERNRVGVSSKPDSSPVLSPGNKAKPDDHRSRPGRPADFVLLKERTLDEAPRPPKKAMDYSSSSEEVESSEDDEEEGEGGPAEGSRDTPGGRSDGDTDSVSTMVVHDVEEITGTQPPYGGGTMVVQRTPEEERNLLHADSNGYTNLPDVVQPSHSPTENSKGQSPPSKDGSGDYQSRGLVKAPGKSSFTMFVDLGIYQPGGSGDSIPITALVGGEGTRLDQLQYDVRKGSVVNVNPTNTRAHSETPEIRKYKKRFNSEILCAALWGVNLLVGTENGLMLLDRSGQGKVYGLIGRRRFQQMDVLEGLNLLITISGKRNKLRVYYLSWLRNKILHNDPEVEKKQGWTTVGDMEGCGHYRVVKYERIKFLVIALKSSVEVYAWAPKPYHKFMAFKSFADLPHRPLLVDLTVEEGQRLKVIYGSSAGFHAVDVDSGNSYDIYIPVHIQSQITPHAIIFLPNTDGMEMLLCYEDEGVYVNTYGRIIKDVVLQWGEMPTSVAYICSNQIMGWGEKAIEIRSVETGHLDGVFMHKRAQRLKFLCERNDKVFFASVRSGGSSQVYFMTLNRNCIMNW
Sequence of Eukaryotic translation initiation factor 2-alpha kinase 1 (Homo sapiens) (Q9BQI3 whole entry): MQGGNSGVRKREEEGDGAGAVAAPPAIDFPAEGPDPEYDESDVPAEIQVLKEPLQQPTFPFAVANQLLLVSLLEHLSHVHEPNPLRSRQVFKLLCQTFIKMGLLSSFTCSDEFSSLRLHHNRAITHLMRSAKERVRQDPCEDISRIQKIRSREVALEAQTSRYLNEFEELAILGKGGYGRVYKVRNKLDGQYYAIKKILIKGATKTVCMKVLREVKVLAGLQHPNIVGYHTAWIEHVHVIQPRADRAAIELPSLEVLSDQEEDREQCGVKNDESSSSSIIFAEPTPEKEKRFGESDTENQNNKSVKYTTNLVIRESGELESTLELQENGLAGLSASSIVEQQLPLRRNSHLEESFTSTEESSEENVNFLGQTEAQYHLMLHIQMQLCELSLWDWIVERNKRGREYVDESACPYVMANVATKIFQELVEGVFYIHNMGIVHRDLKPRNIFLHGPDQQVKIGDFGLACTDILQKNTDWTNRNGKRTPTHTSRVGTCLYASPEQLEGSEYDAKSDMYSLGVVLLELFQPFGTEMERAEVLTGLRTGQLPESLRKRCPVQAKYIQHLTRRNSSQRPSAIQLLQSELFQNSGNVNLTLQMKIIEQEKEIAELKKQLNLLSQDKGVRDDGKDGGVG
Sequence of SWI/SNF-related matrix-associated actin-dependent regulator of chromatin subfamily A member 4 (Homo sapiens) (P51532 whole entry): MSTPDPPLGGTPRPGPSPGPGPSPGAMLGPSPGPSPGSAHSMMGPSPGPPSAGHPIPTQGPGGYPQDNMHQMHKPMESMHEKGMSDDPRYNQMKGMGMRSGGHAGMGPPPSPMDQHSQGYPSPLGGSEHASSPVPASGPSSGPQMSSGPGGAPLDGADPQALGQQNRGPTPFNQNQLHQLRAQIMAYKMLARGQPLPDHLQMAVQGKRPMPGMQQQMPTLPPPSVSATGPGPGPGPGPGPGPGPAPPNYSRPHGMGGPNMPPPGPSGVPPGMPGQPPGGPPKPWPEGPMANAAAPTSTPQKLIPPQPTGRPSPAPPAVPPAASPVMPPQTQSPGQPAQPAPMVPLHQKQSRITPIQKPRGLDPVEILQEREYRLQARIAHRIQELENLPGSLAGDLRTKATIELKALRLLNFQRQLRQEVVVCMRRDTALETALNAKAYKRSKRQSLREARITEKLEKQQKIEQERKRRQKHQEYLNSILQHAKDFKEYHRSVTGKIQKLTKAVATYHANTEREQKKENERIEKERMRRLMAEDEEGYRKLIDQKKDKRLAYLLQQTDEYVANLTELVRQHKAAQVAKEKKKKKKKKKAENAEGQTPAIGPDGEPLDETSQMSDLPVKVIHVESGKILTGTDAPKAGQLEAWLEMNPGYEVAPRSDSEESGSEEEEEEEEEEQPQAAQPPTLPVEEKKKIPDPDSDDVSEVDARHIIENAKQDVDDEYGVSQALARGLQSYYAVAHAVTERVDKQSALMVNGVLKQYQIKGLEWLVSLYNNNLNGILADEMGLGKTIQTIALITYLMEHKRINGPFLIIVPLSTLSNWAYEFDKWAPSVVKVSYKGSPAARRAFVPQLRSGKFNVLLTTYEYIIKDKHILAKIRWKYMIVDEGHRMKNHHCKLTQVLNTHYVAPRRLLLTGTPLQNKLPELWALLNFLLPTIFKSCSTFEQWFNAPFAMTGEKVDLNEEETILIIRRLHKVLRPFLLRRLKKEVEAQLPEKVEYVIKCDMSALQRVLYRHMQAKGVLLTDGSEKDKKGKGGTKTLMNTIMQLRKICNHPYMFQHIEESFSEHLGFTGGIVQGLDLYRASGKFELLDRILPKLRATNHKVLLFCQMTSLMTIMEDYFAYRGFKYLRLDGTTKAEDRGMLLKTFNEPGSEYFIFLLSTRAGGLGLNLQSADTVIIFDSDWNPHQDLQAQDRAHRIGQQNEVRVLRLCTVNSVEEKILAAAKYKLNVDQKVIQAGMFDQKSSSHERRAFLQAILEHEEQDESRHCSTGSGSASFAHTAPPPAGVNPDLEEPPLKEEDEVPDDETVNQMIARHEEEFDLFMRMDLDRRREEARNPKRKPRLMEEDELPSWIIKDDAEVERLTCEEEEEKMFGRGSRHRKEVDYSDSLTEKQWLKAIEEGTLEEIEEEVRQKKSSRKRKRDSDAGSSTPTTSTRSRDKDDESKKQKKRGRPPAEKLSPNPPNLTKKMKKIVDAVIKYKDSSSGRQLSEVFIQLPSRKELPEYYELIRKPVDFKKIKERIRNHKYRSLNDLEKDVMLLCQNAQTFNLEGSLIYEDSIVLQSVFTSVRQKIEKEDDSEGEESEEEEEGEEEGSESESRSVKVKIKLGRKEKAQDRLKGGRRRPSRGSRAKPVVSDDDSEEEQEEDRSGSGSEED
Sequence of Ribosomal protein S6 kinase alpha-3 (P51812 whole entry): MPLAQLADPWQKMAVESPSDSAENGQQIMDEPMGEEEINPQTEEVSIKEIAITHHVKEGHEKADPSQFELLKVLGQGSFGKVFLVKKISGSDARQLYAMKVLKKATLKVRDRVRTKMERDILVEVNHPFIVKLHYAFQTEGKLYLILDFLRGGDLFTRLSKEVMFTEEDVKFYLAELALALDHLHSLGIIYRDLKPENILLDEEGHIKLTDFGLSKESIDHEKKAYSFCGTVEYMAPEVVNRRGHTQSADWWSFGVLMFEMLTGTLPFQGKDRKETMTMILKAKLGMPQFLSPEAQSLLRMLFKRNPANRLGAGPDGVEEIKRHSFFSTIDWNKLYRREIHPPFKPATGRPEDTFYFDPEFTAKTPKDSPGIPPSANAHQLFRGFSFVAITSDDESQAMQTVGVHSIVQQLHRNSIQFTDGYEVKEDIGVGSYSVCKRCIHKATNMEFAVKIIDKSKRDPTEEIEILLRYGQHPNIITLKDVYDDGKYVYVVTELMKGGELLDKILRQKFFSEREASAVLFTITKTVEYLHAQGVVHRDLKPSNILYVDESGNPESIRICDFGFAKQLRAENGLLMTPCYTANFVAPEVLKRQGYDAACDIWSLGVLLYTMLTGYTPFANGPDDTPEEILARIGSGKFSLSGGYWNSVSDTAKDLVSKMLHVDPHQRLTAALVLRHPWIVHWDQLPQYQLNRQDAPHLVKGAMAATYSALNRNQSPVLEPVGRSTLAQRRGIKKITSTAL

CCN(CC)CCCCNc1ncc2cc(-c3cc(OC)cc(OC)c3)c(NC(=O)NC(C)(C)C)nc2n1
% of control [1]: 100%
% of control [2]: 100%

Nc1cnc(N2CCc3cc(S(=O)(=O)Nc4c(F)cc(Cl)cc4F)cc(N4CCCC4=O)c32)nc1 [TP-020n]
% of control [3]: 77%

CN(C)CCCOc1ccc(-c2cc(NCCCn3cccn3)nc(S(C)(=O)=O)n2)cc1
dTM [4]: < 2 K

Cc1cc([C@@H](C)Nc2ccccc2C(=O)O)c2nc(N3CCOCC3)cc(=O)n2c1 [AZD-6482]
% of control [5]: 67%

CC[C@@H]1[C@H](F)C(=O)N[C@@H]1COc1nccc2cc(C(N)=O)c(OC)cc12 [ZIMLOVISERTIB]
% of inhibition [6]: -3.7%

CNC(=O)Nc1ccc(-c2nc(N3CC4CCC(C3)O4)c3cnn(C4CCC5(CC4)OCCO5)c3n2)cc1
% of control [7]: 100%

C=CC(=O)Nc1cc(-n2c(=O)ccc3cnc4ccc(-c5ccc(NS(C)(=O)=O)cc5)cc4c32)ccc1C
% of control (Misshapen-like kinase 1; at 1 µM): 100%
% of control (Misshapen-like kinase 1; at 10 µM): 73%
% of control ([8]; at 1 µM): 100%
% of control ([8]; at 10 µM): 52%

O[C@H]1CC[C@H](Nc2ncc3nc(Nc4c(F)cc(F)cc4F)n([C@H]4CCOC4)c3n2)CC1
% of control [9]: 98%
